From article PMC3002932 (PLoS ONE, 2010)

Experiments:
[1] = SDS-PAGE in non-reductive conditions; assay type: physicochemical; conditions: inconclusive
[2] = NMR studies of oligomerization (data not shown); assay type: physicochemical; conditions: water, DMSO and their mixtures; limited NMR studies (data not shown)
[3] = system: HIV-1 (BaL); assay type: cell-based; conditions: TZM-bl assay; HIV-1 BaL (R5); 24 hr; luciferase activity
Experimental: The ability of the analogs to inhibit HIV infection was determined with an assay that determines viral infectivity with an LTR-mediated luciferase reporter construct [37]. In brief, TZM-bl reporter cells are HeLa-derived JC53-BL cells that express high levels of CD4, CXCR4, and CCR5. They also contain reporter cassettes for luciferase and β-galactosidase, both driven by the HIV-1 long terminal repeat [38]). 24 hr after these reporter cells were exposed to R5 lab-adapted strains of HIV-1 (BaL) in the presence of peptides, protection was measured as % reduction in luciferase activity (relative light units) compared to cells infected with virus and peptide vehicle alone.

[4] = FTIR spectroscopy secondary structure; assay type: physicochemical
Experimental: Infrared spectra were recorded at 25°C using a Bruker Vector 22™ FTIR spectrometer with a deuterated triglycine sulfate (DTGS) detector, and averaged over 256 scans at a gain of 4 with a resolution of 2 cm^−1. Peptide samples were initially freeze-dried several times from 10 mM HCl in D2O to remove any interfering counter ions and residual H2O. Solution spectra of peptides were made in deuterated 10 mM phosphate buffer, pD = 7.4 (pD = pH+0.4) and in structure promoting mixed solvent-buffer solutions (trifluoroethanol (TFE) or hexafluoroiso propanol (HFIP). Spectra were acquired using a temperature controlled, demountable liquid cell with calcium fluoride windows fitted with a 50 µm thick spacer (Harrick Scientific, Pleasantville, NY). The relative proportions of α-helix, β-turn, β-sheet, and disordered conformations of solution and multilayer IR spectra were determined by Fourier self-deconvolution for band narrowing and area calculations of component peaks of the FTIR spectra using curve-fitting software supplied by Galactic Software (GRAMS/AI, version 8.0; Thermo Electron Corp., Waltham, MA). The frequency limits for the different structures were: α-helix (1662–1645 cm^−1), β-sheet (1637–1613 and 1710–1682 cm^−1), turns (1682–1662 cm^−1), and disordered or random (1650–1637 cm^−1).

[5] = molecular target: gp120BAL; experiment: SPR binding to gp120BAL; design: species or system HIV-1; conditions: BIAcore CM5 chip, HBS-EP pH = 7.4, KD±SEM, average from at least 5 independent experiments
[6] = system: gp41, gp120BAL and gp120LAV; experiment: SPR binding to viral glycoproteins (gp41, gp120BAL, gp120LAV); design: species or system HIV-1
[7] = system: TZM-bl cells; experiment: Cell viability (CytoTox-Glo) in TZM-bl cells; assay type: cell-based; conditions: Figure 8
Experimental: (§1) Cell viability experiments were carried out using CytoTox-Glo™ Assay (Promega Corp., Madison, WI) and cytotoxicity was analyzed using an MTT-based cell proliferation kit (Boehringer Mannheim, Indianapolis, IN) Both tests were performed according to manufacturer's instructions. MTT is 3-(4,5-dimethylthiazol-2-yl)-2,5-diphenyltetrazolium bromide. Experiments utilizing vaginal epithelial cells (VECs) were carried out as previously described.

[8] = system: CCR5 (HIV-1BAL); experiment: p24^gag antigen release assay using PBMCs, CCR5 strain; assay type: cell-based; conditions: PBMC based p24^gag antigen release assay
[9] = system: TZM-bl cells; experiment: MTT reduction in TZM-bl cells; assay type: cell-based; conditions: Figure 8
Experimental: as §1

[10] = system: CXCR4 (HIV-1IIIB); experiment: p24^gag antigen release assay using PBMCs, CXCR4 strain; assay type: cell-based; conditions: PBMC based p24^gag antigen release assay
[11] = molecular target: gp41 (Human immunodeficiency virus type 1 group M subtype B, UniProt P03375); conditions: SPR, BIAcore CM5 chip, HBS-EP pH = 7.4; KD±SEM, average from at least 5 independent experiments
gp41, sequence (P03375 512-856): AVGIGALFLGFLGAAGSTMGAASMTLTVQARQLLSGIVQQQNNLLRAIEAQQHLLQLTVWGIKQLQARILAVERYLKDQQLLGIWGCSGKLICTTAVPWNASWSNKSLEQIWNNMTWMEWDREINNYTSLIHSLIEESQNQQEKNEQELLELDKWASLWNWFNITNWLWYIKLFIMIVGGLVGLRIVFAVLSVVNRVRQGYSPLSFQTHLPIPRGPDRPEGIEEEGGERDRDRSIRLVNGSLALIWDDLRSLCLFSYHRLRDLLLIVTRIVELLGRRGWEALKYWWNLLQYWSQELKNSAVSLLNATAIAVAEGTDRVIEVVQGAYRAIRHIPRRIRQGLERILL
Experimental: (§2) Surface plasmon resonance (SPR) studies were performed on a BIAcore 3000 system (BiaCore AB, Piscataway, NJ), using BIAcore CM5 sensor chips and HBS-EP running buffer (pH = 7.4) containing 10 mM HEPES, 150 mM NaCl, 3 mM EDTA, and 0.005% polysorbate 20. Proteins/peptides were immobilized on a CM5 sensor chip using the amine coupling method. The chip was activated by mixing 400 mM N-ethyl-N-(3-dimethylaminopropyl)-carbodiimide hydrochloride and 100 mM N-hydroxysuccinimide. Residual reactive groups on the chip surface were blocked using 1.0 M ethanolamine/HCl (pH = 8.5). The flow cell-1 chamber, which served as a control, lacked immobilized protein but was treated with N-ethyl-N-(3-dimethylaminopropyl)-carbodiimide hydrochloride, N-hydroxysuccinimide, and ethanolamine/HCl. Binding signals were corrected for nonspecific binding by subtracting the flow cell-1 signal. To regenerate chip surfaces, bound ligands were removed with 10 mM HCl. Data were analyzed with BIAevaluation 4.1 software (Biacore, Piscataway, NJ).

[12] = molecular target: gp120LAV (Human immunodeficiency virus type 1 group M subtype B, UniProt P03377); conditions: SPR, BIAcore CM5 chip, HBS-EP pH = 7.4; KD±SEM, average from at least 5 independent experiments
Experimental: as §2

[13] = CD analysis of secondary structure; assay type: physicochemical; conditions: for disordered / turns / α-helix / β-sheet: Selcon
Experimental: Peptide was scanned at 20 nm per minute in a 0.01 cm path-length cell at 25°C with a sample interval of 0.2 nm. The peptide concentration was determined by UV absorbance at 280 nm. After baseline correction, spectra were expressed as the Mean Residue Ellipticity [θ]MRE. Quantitative estimates of secondary structural contributions were made with Selcon using the spectral basis set for proteins in the Olis Global Works™ software package (Olis Inc., Bogart, GA).

[14] = 0.5 mM in 10 mM phosphate buffer pH = 7.5, 25°C
[15] = 0.5 mM in HFIP:10 mM phosphate buffer pH = 7.5 (4∶6, v∶v), 25°C
[16] = 0.5 mM in TFE:10 mM phosphate buffer pH = 7.5 (4∶6, v∶v), 25°C
[17] = 0.25 mM in 10 mM phosphate buffer pH = 6.5, 25°C
[18] = 0.5 mM in 10 mM phosphate buffer pH = 6.5, 25°C
[19] = 0.5 mM in HFIP:10 mM phosphate buffer pH = 6.5 (4∶6, v∶v), 25°C
[20] = 0.5 mM in TFE:10 mM phosphate buffer pH = 6.5 (4∶6, v∶v), 25°C

Cha-SC-Chg-R-Chg-RSGSY-Cha-DN-Chg-R-Chg-(D)Cys-CONH2 (disulfide) [GRFN-1]
apparent size of dimers [1]: ~4.5 kDa | oligomerization (in words) [2]: Oligomerization of GRFN-1 in various solvents (water, DMSO and their mixtures) was suggested | EC50 [3]: 191 ± 11 nM | disordered [4, 14]: 27.6% | turns [4, 14]: 22.4% | α-helix [4, 14]: 12.4% | β-sheet [4, 14]: 37.6% | disordered [4, 15]: 25.8% | turns [4, 15]: 17.2% | α-helix [4, 15]: 48.6% | β-sheet [4, 15]: 8.4% | disordered [4, 16]: 24.8% | turns [4, 16]: 20.3% | α-helix [4, 16]: 23.2% | β-sheet [4, 16]: 31.7% | secondary structure (in words) ([4]; TFE:buffer and HFIP:buffer): shift from β-sheet to more helical conformations | secondary structure (in words) ([4]; aqueous buffer): dominant β-sheet structure | Kd [5]: 1060 ± 220 nM | binding (in words) [6]: binds gp41, gp120BAL and gp120LAV in a dose dependent manner | effect on viability [7]: no effect on viability | antiviral activity (in words) [8]: maintained their antiviral activity | inhibition of cellular dehydrogenase activity (MTT reduction) [9]: appeared to inhibit cellular dehydrogenase activity (as gauged by MTT reduction) in a dose dependent manner | antiviral activity (in words) [10]: maintained their antiviral activity | Kd [11]: 3000 ± 1310 nM | Kd [12]: 2240 ± 810 nM | disordered [13, 17]: 30.0% | turns [13, 17]: 21.0% | α-helix [13, 17]: 25.0% | β-sheet [13, 17]: 24.0% | disordered [13, 18]: 31.0% | turns [13, 18]: 21.0% | α-helix [13, 18]: 13.0% | β-sheet [13, 18]: 35.0% | disordered [13, 19]: 24.0% | turns [13, 19]: 16.0% | α-helix [13, 19]: 52.0% | β-sheet [13, 19]: 8.0% | disordered [13, 20]: 30.0% | turns [13, 20]: 23.0% | α-helix [13, 20]: 19.0% | β-sheet [13, 20]: 28.0% | secondary structure (in words) ([13]; 10 mM phosphate buffer, pH = 6.5, 250 µM): almost equal proportions of α-helix, β-sheet, turn and disordered conformations | secondary structure (in words) ([13]; 10 mM phosphate buffer, pH = 6.5, 500 µM vs 250 µM): β-sheet structure increases at the expense of α-helix | secondary structure (in words) ([13]; HFIP:buffer): dominant helical conformation | secondary structure (in words) ([13]; TFE:buffer): mix of α-helix, β-sheet, turns | concentration dependence of conformation ([13]; TFE:buffer and HFIP:buffer, 50 to 500 µM (data not shown)): not concentration dependent
